Measurements: patent US20130225597A1, “USE OF PHOSPHODIESTERASE INHIBITOR TO ENHANCE POST-SURGICAL ERECTION IN MEN UNDERGOING RADICAL PROSTATECTOMY” (University of Medicine and Dentistry of New Jersey, priority 2010, published 2013)
Where a name gives a salt, the structure may show the parent alone.

Key:
[1] = system: spinal motor and non-motor neurons; conditions: cited from earlier work
PC12 neuronal cell = test: Neuronal survival of hydrogen peroxide treated PC-12 cells; format: cell-based; conditions: 1 mM H2O2 for 1 hour, 24 hours incubation, viable cells counted
Protocol: Neuronal Survival Experiments. For survival experiments, PC12 neuronal cell were seeded in 6-well plates at a density of 1×10^5 per well in Dulbecco's modified Eagle's medium (DMEM) supplemented with 1% fetal bovine serum (FBS) and 100 ng/ml nerve growth factor (NGF), herein after (“Media”), for 3 days. Media was changed every 3 days. Cells were treated in the presence or absence of 1 mM hydrogen peroxide (H2O2) for 1 hour in the presence or absence of either sildenafil Citrate, vardenafil, or tardalafil at 0.1-fold physiologic dose (0.5 μM, 0.3 μM and 0.4 μM, respectively), physiologic dose (5 μM, 3 μM and 4 μM, respectively) and 10-fold physiologic dose (50 μM, 30 μM and 40 μM, respectively). Treated cells were incubated for 24 hours at 37° C. Viable cells were detached and counted using an automated counter.

[2] = system: post-radical prostatectomy erection dysfunction; test: Clinical study: sildenafil citrate at the operative site in robot-assisted radical prostatectomy, potency recovery; format: in vivo, humans; conditions: 147 men
Protocol: Clinical Studies. For effective study in humans, 147 men that underwent robot-assisted radical prostatectomy were treated with sildenafil citrate at the operative site. Potency was reported in 24.2%, 84.2% and 93.3% of the subjects at three, six, and twelve months post-operative, respectively.

## CCCOc1ccccc1-c1nc2nn[nH]c2c(=O)[nH]1 [zaprinas]
[1]
  protection against acute Reactive Oxygen Species-induced neurotoxicity: protect

## COc1ccc(C2CNC(=O)C2)cc1OC1CCCC1 (centres unmarked) [rolipram]
PC12 neuronal cell
  protection against H2O2-induced cell death (neuronal viability): significant protection

## CCCc1nn(C)c2c(=O)[nH]c(-c3cc(S(=O)(=O)N4CCN(C)CC4)ccc3OCC)nc12 [sildenafil citrate]
[2]; six months post-operative
  Potency reported, % of subjects: 84.2%
[2]; three months post-operative
  Potency reported, % of subjects: 24.2%
[2]; twelve months post-operative
  Potency reported, % of subjects: 93.3%
